Legend:
HepG2 WT cells [1] = assay: Colocalization of EGFP-ATP7B-WT with TGN, lysosome (LAMP1) and LC3B markers; format: cell-based, human
Protocol: (§1) For the detection of the effect of copper on autophagosome-lysosome fusion, 50,000 cells of each HepG2 WT and HepG2 ATP7B^−/− were grown on laminin-coated coverslips for 24 h, transduced with BacMam-GFP-RFP-LC3B overnight according to the manufacturer’s recommendations. The cells were then treated with CuSO4 at a concentration range from 100 µM to 800 µM for 24 h, fixed with 4% paraformaldehyde for 15 min and finally stained with 250 ng/mL DAPI (Thermo Fisher scientific, Molecular Probes, D1306) for 5 min. The coverslips were fixed on a glass slide using Mowiol 4–88 (Sigma Aldrich, 81381). The fluorescence cell imaging was acquired using a confocal Zeiss LSM 780 microscope with a 63 × 1.40 Oil DIC M27. […] Red and yellow puncta count per cell was done using the particle analysis in image J. For protein ATP7B trafficking analysis, 50,000 cells of HepG2 WT and HepG2 ATP7B^−/− were cultured in a 500 µL cell culture medium on a laminin-coated coverslip for 24 h, then transfected with EGFP-ATP7B. After 6 h post transfection, cells were transduced with BacMam-RFP-Golgi or the BacMam-RFP-Lysosome overnight, then treated with various concentrations of CuSO4 or 200 µM of bathocuproine disulfonate (BCS) for 24 h or EBSS for 2 h, respectively. To detect LC3B or endogenous ATP7B, the fixed cells were incubated with anti-LC3B or anti-ATP7B antibodies at 4 °C overnight followed by secondary antibody incubation, Alexa Fluor 568 goat anti-rabbit, at temperature for 1 h in the dark. Pearson’s correlation coefficient was analyzed per cell using the colocalization threshold of ImageJ Fiji.

HepG2 WT cells [2] = assay: Autophagy detection by western blot (LC3B-II/LC3B-I), HepG2 WT; format: cell-based, human; settings: 24 h treatment, 100–800 µM, effect at 600 µM and 800 µM
Protocol: (§2) 5 × 10^5 HepG2 cells were cultured in 2 mL of DMEM medium supplemented with 10% FBS and 1% P/S. Once the cell reached 80% confluence, they were treated with varied concentration of CuSO4 (Sigma Aldrich, 209198) from 200 µM to 800 µM for 24 h. For the starvation induction, cells were additionally treated with Earle’s Balanced Salt Solution (EBSS) media (Sigma Aldrich, E3024) for 2 h with or without 50 µM chloroquine (CLQ) prior to lysis with RIPA buffer containing inhibitor cocktails (Roche Life Science, 11697498001). Protein concentration was determined to be sure that the protein of each sample was equally loaded on the Criterion TGX precast gel for western blot detection. ATP7B, GAPDH and LC3B-II/LC3B-I was determined using the above-mentioned antibodies. Western Blot analysis was carried out as described above.

HepG2 WT cells [3] = assay: Autophagosome-lysosome fusion, tandem sensor RFP-GFP-LC3B, HepG2 WT; format: cell-based, human; settings: 24 h, high CuSO4 concentration, significance reached at 800 µM, 30–50 cells per condition
Protocol: as §1, with “To detect LC3B or endogenous ATP7B, the fixed cells were incubated with anti-LC3B or anti-ATP7B antibodies at 4 °C overnight followed by secondary antibody incubation, Alexa Fluor 568 goat anti-rabbit, at temperature for 1 h in the dark.” left out

HepG2 ATP7B^−/− cells [4] = assay: Autophagy detection by western blot (LC3B-II/LC3B-I), HepG2 ATP7B-/-; format: cell-based, human; settings: 24 h, even at 600 µM and 800 µM
Protocol: as §2

HepG2 ATP7B^−/− cells [5] = assay: Autophagosome-lysosome fusion, tandem sensor RFP-GFP-LC3B, HepG2 ATP7B-/-; format: cell-based, human; settings: 24 h, 800 µM, 30–50 cells per condition
Protocol: as §1, with “To detect LC3B or endogenous ATP7B, the fixed cells were incubated with anti-LC3B or anti-ATP7B antibodies at 4 °C overnight followed by secondary antibody incubation, Alexa Fluor 568 goat anti-rabbit, at temperature for 1 h in the dark.” left out

LC3B = biological target: T1, LC3B (Homo sapiens, UniProt Q9GZQ8); assay: Pull-down with resin-bound GST-LC3B as bait from transfected HEK293H cell lysate; format: binding; settings: 500 µg HEK293H lysate, western blot, repeated two times
T1 construct: His6 (N, cleaved yes); MBP (N, cleaved yes); made in house; host or cells: E. coli BL21-codonplus (DE3)-RIL
Protocol: GST tagged LC3B was used as a bait to trap the full-length ATP7B from a lysate obtained from ATP7B transfected human embryonic kidney 293 H cell line (HEK293H) cells. To this end, 100,000 cells of HEK293H were cultured in 1 mL of DMEM media (Thermo Fisher Scientific, 31966-047) plus 10% fetal bovine serum (FBS) (Fisher Scientific, 10309433) and 1% Penicillin-Streptomycin (P/S) (Thermo Fisher Scientific, 15140122). Once the cells reached 80% confluence, cells were transfected with pIRES-GFP carrying full-length ATP7B (NM_000053.4) or its W1452A/L1455A mutant using Lipofectamine LTX and plus reagent (Invitrogen, 15338100). […] Blots were imaged on an Infrared fluorescence imaging system using Li-Cor 9120 Odyssey (LI-COR Biosciences, Bad Homburg, Germany). Protein band intensity quantification was done using ImageJ (National Institutes of Health, Bethesda, MD, USA).

Molecule: O=S(=O)([O-])[O-].[Cu+2] [CuSO4]
- TGN fraction of EGFP-ATP7B (HepG2 WT cells [1]; 400 µM CuSO4, 24 h): no TGN fraction was detectable
- fold increase of EGFP-ATP7B colocalization with lysosomal structures vs basal medium condition (HepG2 WT cells [1]; 400 µM CuSO4, 24 h): about 1.2 fold
- colocalization of EGFP-ATP7B with lysosomal structures (LAMP1) (HepG2 WT cells [1]; 400 µM CuSO4, 24 h, percentage from mean Pearson's correlation coefficient, 30 cells): 83.6%
- fold elevation of EGFP-ATP7B colocalization with LC3B vs basal copper concentration (HepG2 WT cells [1]; high CuSO4 concentration (400 µM), 24 h): 4.8 fold
- colocalization of EGFP-ATP7B with LC3B (HepG2 WT cells [1]; high CuSO4 concentration (400 µM), 24 h, from mean Pearson's correlation coefficient, 30 cells): 11.6%
- LC3B-II level (western blot) (HepG2 WT cells [2]): significant increase of LC3B-II
- red/yellow puncta ratio (autophagosome-lysosome fusion) (HepG2 WT cells [3]): increased red/yellow puncta ratio
- LC3B-II/LC3B-I ratio (western blot) (HepG2 ATP7B^−/− cells [4]): did not significantly alter
- red/yellow puncta ratio (autophagosome-lysosome fusion) (HepG2 ATP7B^−/− cells [5]): significantly decreased

B1: ATP7B^W1452A/L1455A: full-length ATP7B variant W1452A/L1455A with mutated LIR3 motif (protein)
chain: MPEQERQITAREGASRKILSKLSLPTRAWEPAMKKSFAFDNVGYEGGLDGLGPSSQVATSTVRILGMTCQSCVKSIEDRISNLKGIISMKVSLEQGSATVKYVPSVVCLQQVCHQIGDMGFEASIAEGKAASWPSRSLPAQEAVVKLRVEGMTCQSCVSSIEGKVRKLQGVVRVKVSLSNQEAVITYQPYLIQPEDLRDHVNDMGFEAAIKSKVAPLSLGPIDIERLQSTNPKRPLSSANQNFNNSETLGHQGSHVVTLQLRIDGMHCKSCVLNIEENIGQLLGVQSIQVSLENKTAQVKYDPSCTSPVALQRAIEALPPGNFKVSLPDGAEGSGTDHRSSSSHSPGSPPRNQVQGTCSTTLIAIAGMTCASCVHSIEGMISQLEGVQQISVSLAEGTATVLYNPSVISPEELRAAIEDMGFEASVVSESCSTNPLGNHSAGNSMVQTTDGTPTSVQEVAPHTGRLPANHAPDILAKSPQSTRAVAPQKCFLQIKGMTCASCVSNIERNLQKEAGVLSVLVALMAGKAEIKYDPEVIQPLEIAQFIQDLGFEAAVMEDYAGSDGNIELTITGMTCASCVHNIESKLTRTNGITYASVALATSKALVKFDPEIIGPRDIIKIIEEIGFHASLAQRNPNAHHLDHKMEIKQWKKSFLCSLVFGIPVMALMIYMLIPSNEPHQSMVLDHNIIPGLSILNLIFFILCTFVQLLGGWYFYVQAYKSLRHRSANMDVLIVLATSIAYVYSLVILVVAVAEKAERSPVTFFDTPPMLFVFIALGRWLEHLAKSKTSEALAKLMSLQATEATVVTLGEDNLIIREEQVPMELVQRGDIVKVVPGGKFPVDGKVLEGNTMADESLITGEAMPVTKKPGSTVIAGSINAHGSVLIKATHVGNDTTLAQIVKLVEEAQMSKAPIQQLADRFSGYFVPFIIIMSTLTLVVWIVIGFIDFGVVQRYFPNPNKHISQTEVIIRFAFQTSITVLCIACPCSLGLATPTAVMVGTGVAAQNGILIKGGKPLEMAHKIKTVMFDKTGTITHGVPRVMRVLLLGDVATLPLRKVLAVVGTAEASSEHPLGVAVTKYCKEELGTETLGYCTDFQAVPGCGIGCKVSNVEGILAHSERPLSAPASHLNEAGSLPAEKDAVPQTFSVLIGNREWLRRNGLTISSDVSDAMTDHEMKGQTAILVAIDGVLCGMIAIADAVKQEAALAVHTLQSMGVDVVLITGDNRKTARAIATQVGINKVFAEVLPSHKVAKVQELQNKGKKVAMVGDGVNDSPALAQADMGVAIGTGTDVAIEAADVVLIRNDLLDVVASIHLSKRTVRRIRINLVLALIYNLVGIPIAAGVFMPIGIVLQPWMGSAAMAASSVSVVLSSLQLKCYKKPDLERYEAQAHGHMKPLTASQVSVHIGMDDRWRDSPRATPWDQVSYVSQVSLSSLTSDKPSRHSAAADDDGDKASLALNGRDEEQYI
- ATP7B in elution fraction of GST-LC3B pull-down (LC3B): largely reduced
